Test [1] concerns the target T1, PS1 precursor (Homo sapiens, UniProt P49768).
T1 construct: The unprocessed or precursor form of PS1 is evidenced by a band at 45 kDa; endogenous in cells; host or cells: SH-SY5Y neuroblastoma cells
As to the kind of experiment: Screening of γ-secretase inhibitors for PS1 precursor (holo) enhancement, western blot. The note with it: ~50 uM inhibitor, 24 hrs; for PS1 Precursor Enhancement: SH-SY5Y neuroblastoma cells; for PS1 precursor (45 kDa band) level / stabilization: SY5Y neuroblastomas. Format: cell-based. Also noted: key to PS1 Precursor Enhancement: −: no effect; +: some effect; ++: moderate effect; +++: strong effect. On the procedure:
Eighteen different γ-secretase inhibitors (purchased from Calbiochem) were tested for their ability to stabilize the PS1 precursor. SH-SY5Y neuroblastoma cells (1e6) incubated in 6-well plates were dosed with ˜50 uM γ-secretase inhibitor (10% FBS, DMEM) for 24 hrs. Cells were lysed in 2% CHAPS (TBS+protease inhibitors), cell debris pelleted at 18,000 g. Total protein in cell lysates were determined by BCA and 25 ug of protein/lane loaded onto 4-12% BisTris NuPage gels (Invitrogen) that were electrophoresed at 150V for 1 hr. Gels were transferred to PVDF (25V, 1 hr) and probed with anti-N-term PS1 (1:1000, Abcam cat. #ab10281). Western blots were developed using chemiluminescence and imaged using an Alpha Innotech FluorChem Q imaging system. Γ-secretase inhibitors tested: PME, XX, XVII, X, IX, IV, II, I-40, VII, V, III, II-40, I, XIII, XVI, XIX, XXI, CW.
The mature form of PS1 (where PS1 is processed to form a heterodimer) is evidenced by a prominent band at 27 kDa (developed using an antibody specific for the N-terminus of PS1) and is present in all samples. […] The increase in PS1 precursor protein level is interpreted as stabilization of the PS1 precursor and the stabilization appears to be mechanistically distinct from the inhibition of γ-secretase activity since there is no correlation between γ-secretase inhibitory potency (IC50 for Abeta production) and levels of stabilized PS1 precursor (see Table 1).
For orientation: A western blot detects proteins with antibodies after separation by electrophoresis.

For a further test, the target named is γ-secretase (Homo sapiens, UniProt P49768). The note with it: known IC50s of the inhibitors; read-out: IC50 (Abeta production); cited from earlier work.
Another test concerns the target T2, γ-secretase complex (Homo sapiens, UniProt P49768).
T2 construct: The mature form of presenlin is a heterodimer consisting of a ˜30 kDa NH2-terminal fragment (NTF) and a ˜20 kDa C-terminal fragment; host or cells: wild-type fibroblasts CRL2076
As to the kind of experiment: Native gel of intact γ-secretase complex from treated fibroblasts. Format: cell-based. Conditions: wildtype fibroblasts CRL2076, 0-100 uM for 24 hrs, 6 hr wash out. The procedure:
Wildtype fibroblasts (CRL2076) in a 6-well plate were treated with different doses of γ-secretase inhibitor IV (0, 3.1, 6.25, 12.5, 25 and 100 uM) for 24 hrs, followed by a 6 hr wash out period. Fibroblasts were harvested by gentle scraping in TBS, collected by centrifugation (5000 g, 5 min) and lysed in 1% digitonin (50 mM NaCl, 50 mM Hepes, pH 7.3) overnight at 4° C. Nonsolubilized cell debris was removed by centrifugation (15,000 g, 10 min.). Total protein was determined by BCA and equivalent proteins loads of 40 ug/lane were separated on a 4-16% native BisTris polyacrylamide gel using Blue-Native cathode and anode buffer system (Invitrogen). The native gel was transferred to PVDF (25V, 1 hr in NuPage Transfer buffer), blocked with Blotto (Pierce) and probed with anti-N-term PS1 (1:1000, Abcam cat. #ab10281) followed by development using an anti-rabbit alkaline phosphatase conjugate, chemiluminescence detection and imaged using an Alpha Innotech FluorChem Q imaging system.

A further test deals with T3, mature PS1 (Homo sapiens, UniProt P49768).
T3 construct: The mature form of PS1 (where PS1 is processed to form a heterodimer) is evidenced by a prominent band at 27 kDa; The mature form of presenlin is a heterodimer consisting of a ˜30 kDa NH2-terminal fragment (NTF) and a ˜20 kDa C-terminal fragment; endogenous in cells; host or cells: SH-SY5Y neuroblastoma cells
As to the kind of experiment: Mature PS1 dose response to four day treatment, western blot. Format: cell-based. The note with it: SY5Y neuroblastomas, four days of treatment, different concentrations. The procedure:
SY5Y neuroblastomas grown in 6-well plates were dosed with different concentrations of γ-secretase inhibitors IX, XXI, and XX for four days, after which the cells were harvested by centrifugation (5000 g, 5 min.), lysed in RIPA buffer (TBS, 1% TX100, 0.5% taurodeoxycholate, 0.1% SDS plus protease inhibitors) and cleared of unsolubilized cell debris by centrifugation (15,000 g, 10 min., 4 C). Total protein was determined by BCA and equivalent protein loads of 50 ug/lane were separated on a 4-12% BisTris NuPage polyacrylamide gel (Invitrogen) then transferred to PVDF (25V, 1 hr in NuPage Transfer buffer). Western blots were probed with anti-N-term PS1 (1:1000, Abcam cat. #ab10281) followed by development using an anti-rabbit alkaline phosphatase conjugate, chemiluminescence detection and imaged using an Alpha Innotech FluorChem Q imaging system. After PS1 bands were quantified using the FluorChem Q band analysis software, blots were stripped and re-probed for actin (rabbit anti-actin, Pierce Chemicals).

For test [2], the system named is PS1 precursor. Put plainly: Time course of PS1 precursor enhancement, western blot. Conditions: 10 uM, lymphoblast cell line AG07622. Format: cell-based, human. On the procedure: Lymphoblast cell line AG07622 was dosed in 6-well plates with 10 uM of γ-secretase inhibitor X (in 10% FBS, DMEM) for 0 hrs, 2 hrs, 4 hrs, 6 hrs and 24 hrs. Control samples containing 1% DMSO were ran in parallel to the drug treated lymphoblasts. After the specified dosing time, cells were harvested by centrifugation (5000 g, 5 min.), lysed in 2% CHAPS/TBS (with protease inhibitors) and cleared of unsolubilized cell debris by centrifugation (15,000 g, 10 min., 4 C). Total protein was determined by BCA and equivalent proteins loads of 40 ug/lane were separated on a 4-12% BisTris NuPage polyacrylamide gel (Invitrogen) then transferred to PVDF (25V, 1 hr in NuPage Transfer buffer). Western blots were probed with anti-N-term. PS1 (1:1000, Abcam cat. #ab 10281) followed by development using an anti-rabbit alkaline phosphatase conjugate, chemiluminescence detection and imaged using an Alpha Innotech FluorChem Q imaging system.

Entries after “also recorded” stand apart in the source; their conditions may differ. Non-standard residues stand in square brackets, D forms with d. Residues, ends and D or L forms follow the SMILES beside them. ξ: configuration not given here. *: point of attachment. Cbz = O=C(OCc1ccccc1)*; Boc = CC(C)(C)OC(=O)*; ξNle = CCCCC(N)C(=O)O

As to `O=C(O)c1cc(Oc2ccc([N+](=O)[O-])cc2)cc(Oc2ccc([N+](=O)[O-])cc2)c1` [CW], at PS1 precursor [1], the “PS1 Precursor Enhancement” value was “−”.

In the case of `CCCCC(C=O)NC(=O)[C@H](CC(C)C)NC(=O)[C@@H](CC(C)C)NC(=O)OCc1ccccc1` (stereo partly drawn) [I, benzyl ((2R)-4-methyl-1-(((2S)-4-methyl-1-oxo-1-((1-oxohexan-2-yl)amino)pentan-2-yl)amino)-1-oxopentan-2-yl)carbamate] (Cbz-[dL]-Leu-[ξNle]-aldehyde), on PS1 precursor [1], the “PS1 Precursor Enhancement” value is “+” and the “PS1 precursor (45 kDa band) level / stabilization” value is “significantly increased”.

With `CCC(C)C(NC(=O)C=Cc1cc(OC)cc(OC)c1)C(=O)NC(C=O)CC(C)C` (stereo not drawn) [I-40, trans-3,5-DMC-Ile-Leu-CHO], on γ-secretase, the IC50 (usually the concentration that gives 50% inhibition) is 15000 nM. At PS1 precursor [1], the “PS1 Precursor Enhancement” value is “−” and the “PS1 precursor (45 kDa band) level / stabilization” value is reported as “significantly increased”.

`CC(C)C(C=O)NC(=O)C(NC(=O)CNC(=O)OC(C)(C)C)C(C)C` (stereo not drawn) [II-40] (Boc-Gly-Val-Val-aldehyde; configuration not given here): the “PS1 Precursor Enhancement” value at PS1 precursor [1] is recorded as “−”.

For `CC(C)C[C@@H](C=O)NC(=O)[C@@H](CC(C)C)NC(=O)OCc1ccccc1` [III], the IC50 on γ-secretase was 35000 nM. For the same molecule, the “PS1 Precursor Enhancement” value at PS1 precursor [1] is reported as “−”.

As to `CC(C)[C@H](NC(=O)c1ccc2ccccc2c1)C(=O)N[C@H](C=O)Cc1ccccc1` [IV, N-((S)-3-methyl-1-oxo-1-(((S)-1-oxo-3-phenylpropan-2-yl)amino)butan-2-yl)-2-naphthamide], the IC50 at γ-secretase is 2600 nM. For the same molecule, at PS1 precursor [1], the “PS1 Precursor Enhancement” value was “++” and the “PS1 precursor (45 kDa band) level / stabilization” value is recorded as “significantly increased”. Also, on γ-secretase complex, the “band intensity / level of the γ-secretase complex” value is on record as “increased levels of the γ-secretase complex; also recorded: increases as a function of increasing concentration”.

On to `C[C@H](NC(=O)Cc1cc(F)cc(F)c1)C(=O)N[C@H](C(=O)OC(C)(C)C)c1ccccc1` [IX, (S)-tert-butyl 2-((S)-2-(2-(3,5-difluorophenyl)acetamido)propanamido)-2-phenylacetate], for which, at PS1 precursor [1], the “PS1 Precursor Enhancement” value is listed as “−” and the “PS1 precursor (45 kDa band) level / stabilization” value is “does not stabilize the PS1 precursor”. In addition, at mature PS1, the “mature PS1 protein levels” value was “dose dependent increase”.

On to `CC(C)CC(C=O)NC(=O)C(CC(C)C)NC(=O)OC1CC(C)CCC1C(C)C` (stereo not drawn) [VII], for which the IC50 at γ-secretase was 2300 nM. In addition, the “PS1 Precursor Enhancement” value on PS1 precursor [1] was “−”.

With `CC(C)CC(NC(=O)OCc1ccccc1)C(=O)NC(C=O)Cc1ccccc1` (stereo not drawn) [V] (Cbz-Leu-Phe-aldehyde; configuration not given here), the IC50 on γ-secretase was 5000 nM. Further, the “PS1 Precursor Enhancement” value at PS1 precursor [1] is given as “−”.

For the molecule `CC(C)C[C@H](NC(=O)[C@H](Cc1ccccc1)C[C@@H](O)[C@H](Cc1ccccc1)NC(=O)OC(C)(C)C)C(=O)N[C@@H](Cc1ccccc1)C(N)=O` [X, tert-butyl ((2S,3R,5R)-6-(((S)-1-(((S)-1-amino-1-oxo-3-phenylpropan-2-yl)amino)-4-methyl-1-oxopentan-2-yl)amino)-5-benzyl-3-hydroxy-6-oxo-1-phenylhexan-2-yl)carbamate], the IC50 on γ-secretase was 17 nM. Also, in the test with PS1 precursor [2], the “time at which increase in PS1 precursor is first evident” value was 2 h and the “time at which maximum PS1 precursor level is reached” value stood at 24 h. Moreover, at PS1 precursor [1], the “PS1 Precursor Enhancement” value is on record as “+++” and the “PS1 precursor (45 kDa band) level / stabilization” value was “significantly increased”.

For the molecule `CCC(C)C(NC(=O)[C@H](Cc1ccc(O)cc1)NC(=O)OCc1ccccc1)C(=O)N[C@H](C=O)CC(C)C` (stereo partly drawn) [XIII, benzyl ((2S)-3-(4-hydroxyphenyl)-1-((3-methyl-1-(((S)-4-methyl-1-oxopentan-2-yl)amino)-1-oxopentan-2-yl)amino)-1-oxopropan-2-yl)carbamate], the IC50 at γ-secretase was 8 nM. Further, on PS1 precursor [1], the “PS1 Precursor Enhancement” value was “+” and the “PS1 precursor (45 kDa band) level / stabilization” value is recorded as “significantly increased”.

As to `COC(=O)[C@@H](NC(=O)[C@H](CC(C)C)NC(=O)N(Cc1ccccc1)C[C@@H](O)[C@H](Cc1ccccc1)NC(=O)OC(C)(C)C)C(C)C` [XVII, (6S,7R,12S,15S)-methyl 6,9-dibenzyl-7-hydroxy-12-isobutyl-15-isopropyl-2,2-dimethyl-4,10,13-trioxo-3-oxa-5,9,11,14-tetraazahexadecan-16-oate], the IC50 on γ-secretase was 300 nM. For the same molecule, the “PS1 Precursor Enhancement” value at PS1 precursor [1] is “−”.

As to `COC(=O)[C@@H](NC(=O)[C@H](C)NC(=O)Cc1cc(F)cc(F)c1)c1ccccc1` [XVI], at γ-secretase, the IC50 is 10 nM. For the same molecule, the “PS1 Precursor Enhancement” value on PS1 precursor [1] was “−”.

As to `C[C@H](NC(=O)Cc1cc(F)cc(F)c1)C(=O)N[C@@H]1C(=O)N(C)c2ccccc2-c2ccccc21` [XX, (S)-2-(2-(3,5-difluoro-phenyl)acetamido)-N-((S)-5-methyl-6-oxo-6,7-dihydro-5H-dibenzo[b,d]azepin-7-yl)propanamide], the IC50 at γ-secretase was 1.7 nM. At PS1 precursor [1], the “PS1 Precursor Enhancement” value is on record as “+++” and the “PS1 precursor (45 kDa band) level / stabilization” value is listed as “significantly increased; also recorded: do stabilize the PS1 precursor”. Moreover, at mature PS1, the “mature PS1 protein levels” value is given as “dose dependent increase”.

For “(2R,3R)- 3-(3,4-difluorophenyl)- 2-(4-fluorophenyl)-4- hydroxy-N-((S)-2-oxo-5- phenyl-2,3-dihydro-1H- benzo[e][1,4]diazepin-3- yl)butanamide [XIX]”, at γ-secretase, the IC50 was 0.06 nM. Further, at PS1 precursor [1], the “PS1 Precursor Enhancement” value is listed as “+” and the “PS1 precursor (45 kDa band) level / stabilization” value is given as “significantly increased”.

Regarding “(11S)-19-tert- butyl 1-methyl 2,14-di- sec-butyl-9,9-difluoro- 5,17-diisopropyl-11- methyl-4,8,10,15,18- pentaoxo-3,6,7,12,13,16- hexaazanon”, the IC50 at γ-secretase was 13000 nM. In addition, at PS1 precursor [1], the “PS1 Precursor Enhancement” value was “+” and the “PS1 precursor (45 kDa band) level / stabilization” value was “significantly increased”.

Source of the values: patent US20130102538A1, “METHOD OF TREATING ALZHEIMER'S DISEASE USING PHARMACOLOGICAL CHAPERONES TO INCREASE PRESENILIN FUNCTION AND GAMMA-SECRETASE ACTIVITY” (AMICUS THERAPEUTICS, INC., priority 2010, published 2013).
